System: Jurkat FADD (−/−) Cells
Test: TNF-α induced necroptosis of Jurkat FADD-deficient cells (CellTiter-Glo cell survival)
Assay type: cell-based, human
Settings: Homo sapiens; TNF-α induced necroptosis, Jurkat FADD-deficient cells, 13 hours, CellTiter-Glo; read-out: IC50
Protocol: 1. Cell Activity Testing System (TNF-α Induces the Necroptosis of Jurkat Cells, the Human Leukemia Cells Deficient in FADD).
(1) Cell culture: Jurkat FADD-deficient cells were cultured in an RPMI 1640 medium with 10% fetal bovine serum (FBS), 100 U/mL penicillin, and 100 […]. The cells were cultured in a cell culture incubator at 37° C. with 5% CO2. And all the cells were cryopreserved in a complete medium containing 5-10% DMSO. Medium change and passage were performed 3-4 times per week.
(4) Experimental scheme: The system of TNF-α inducing the necroptosis of Jurkat FADD-deficient cells was used to screen for compounds with RIPKl kinase inhibitory activity.
Jurkat FADD-deficient cells were evenly inoculated into a 384-well plate with each well added with a 40 μL complete culture medium, followed by the addition of 5 μL of the under-testing compound to each well. The initial concentration of the compounds was set at 25 μM (for some compounds with higher activity, the initial concentration was set at 0.5 μM), with a three-fold gradient dilution, totaling 12 gradient points. Three replicate wells were set for each compound. In addition, there was a blank control group and a control group with TNFα stimulation only. After the compound was added, the mixture needed to be centrifuged and incubated in a cell culture incubator at 37° C. containing 5% CO2 for 1 hour. After that, 5 μL of 5 ng/mL TNFα was added to stimulate the occurrence of necroptosis. After centrifugation and mixing, the mixture was placed in the cell culture incubator for 13 hours (until the cell death rate reaches 65% in the group with only TNF-α), with a total volume of 50 μL per well. Then, the steps below were followed to test the cell survival rate.
The CellTiter-Glo® Buffer was removed from the reagent kit, equilibrated to room temperature, and used to dissolve the CellTiter-Glo® Substrate. The CellTiter-Glo® Reagent obtained could be directly used for the experiment.
15 μL of CellTiter-Glo® Reagent which has been equilibrated to room temperature was added to each well, and incubated in the dark for 15 minutes. After that, a microplate reader (Enspire Multimode Plate Reader of PerkinElmer, USA) was used to measure the chemiluminescence.

Row | SMILES | IC50 [µM]
1 | CN1C(=O)C(NC(=O)c2nnc(Cc3ccccc3)[nH]2)Cn2ccc3cccc1c32 (racemic) [T-1, (±)-5-benzyl-N-(1-methyl-2-oxy-1,2,3,4-tetrahydro-[1,4]diazepino [3,2,1-hi]indol-3-yl)-4H-1,2,4-triazole-3-carboxamide] | < 0.01
2 | CN1C(=O)C(NC(=O)c2ncc(Cc3ccccc3)o2)Cn2ccc3cccc1c32 (racemic) [T-2, (±)-5-benzyl-N-(1-methyl-2-oxy-1,2,3,4-tetrahydro-[1,4]diazepino [3,2,1-hi]indol-3-yl) oxazole-2-carboxamide] | < 0.01
3 | CN1C(=O)C(NC(=O)c2nnc(Cc3ccccc3)[nH]2)Cn2cc(I)c3cccc1c32 (racemic) [T-3, (±)-5-benzyl-N-(7-iodo-1-methyl-2-oxo-1,2,3,4-tetrahydro-[1,4]diazepino [3,2,1-hi]indol-3-yl)-4H-1,2,4-triazole-3-carboxamide] | 0.01 to 0.1
4 | CSc1cn2c3c(cccc13)N(C)C(=O)C(NC(=O)c1nnc(Cc3ccccc3)[nH]1)C2 (racemic) [T-4, (±)-5-benzyl-N-(1-methyl-7-(methylthio)-2-carbonyl-1,2,3,4-tetrahydro-[1,4]diazepino [3,2,1-hi]indol-3-yl)-4H-1,2,4-triazole-3-carboxamide] | 0.01 to 0.1
5 | CN1C(=O)C(NC(=O)c2nnc(Cc3ccccc3)[nH]2)Cn2ccc3cc(Cl)cc1c32 (racemic) [T-5, (±)-5-benzyl-N-(9-chloro-1-methyl-2-oxo-1,2,3,4-tetrahydro-[1,4]diazepino [3,2,1-hi]indol-3-yl)-4H-1,2,4-triazole-3-carboxamide] | 0.1 to 1
6 | CN1C(=O)C(NC(=O)c2nnc(Cc3ccccc3)[nH]2)Cn2ccc3cc(Br)cc1c32 (racemic) [T-6, (±)-5-benzyl-N-(9-bromo-1-methyl-2-oxo-1,2,3,4-tetrahydro-[1,4]diazepino [3,2,1-hi]indol-3-yl)-4H-1,2,4-triazole-3-carboxamide] | 0.1 to 1
7 | CN1C(=O)C(NC(=O)c2nnc(Cc3ccccc3)[nH]2)Cn2ccc3cc(F)cc1c32 (racemic) [T-7, (±)-5-benzyl-N-(9-fluoro-1-methyl-2-oxo-1,2,3,4-tetrahydro-[1,4]diazepino [3,2,1-hi]indol-3-yl)-4H-1,2,4-triazole-3-carboxamide] | 0.01 to 0.1
8 | CN1C(=O)C(NC(=O)c2nnc(Cc3ccccc3)[nH]2)Cn2cc(C#Cc3cnn(C)c3)c3cccc1c32 (racemic) [T-8, (±)-5-benzyl-N-(1-methyl-7-((1-methyl-1H-pyrazol-4-yl)ethynyl)-2-oxy-1,2,3,4-tetrahydro-[1,4]diazepino [3,2,1-hi]indol-3-yl)-4H-1,2,4-triazole-3-carboxamide] | < 0.01
9 | CN1C(=O)C(NC(=O)c2nnc(Cc3ccccc3)[nH]2)Cn2ccc3cc(C#Cc4cnn(C)c4)cc1c32 (racemic) [T-9, (±)-5-benzyl-N-(1-methyl-9-((1-methyl-1H-pyrazol-4-yl)ethynyl)-2-oxy-1,2,3,4-tetrahydro-[1,4]diazepino [3,2,1-hi]indol-3-yl)-4H-1,2,4-triazole-3-carboxamide] | < 0.01
10 | CCN1C(=O)C(NC(=O)c2nnc(Cc3ccccc3)[nH]2)Cn2ccc3cccc1c32 (racemic) [T-10, (±)-5-benzyl-N-(1-ethyl-2-oxy-1,2,3,4-tetrahydro-[1,4]diazepino [3,2,1-hi]indol-3-yl)-4H-1,2,4-triazole-3-carboxamide] | 0.01 to 0.1
11 | CN1C(=O)C(NC(=O)c2nnc(Cc3ccccc3)[nH]2)Cn2cc(Br)c3cccc1c32 (racemic) [T-11, (±)-5-benzyl-N-(7-bromo-1-methyl-2-oxo-1,2,3,4-tetrahydro-[1,4]diazepino [3,2,1-hi]indol-3-yl)-4H-1,2,4-triazole-3-carboxamide] | 0.01 to 0.1
12 | CCOC(=O)c1cc2cccc3c2n1CC(NC(=O)c1nnc(Cc2ccccc2)[nH]1)C(=O)N3C (racemic) [T-12, (±)-3-(5-benzyl-4H-1,2,4-triazole-3-carboxamido)-1-methyl-2-oxy-1,2,3,4-tetrahydro-[1,4] diazepino [3,2,1-hi] indole-6-carboxylate] | 0.1 to 1
13 | CN1C(=O)C(NC(=O)c2nnc(Cc3ccccc3)[nH]2)Cn2c(C(=O)O)cc3cccc1c32 (racemic) [T-13, (±)-3-(5-benzyl-4H-1,2,4-triazole-3-carboxamido)-1-methyl-2-oxy-1,2,3,4-tetrahydro-[1,4] diazepino [3,2,1-hi] indole-6-carboxylic Acid] | > 1
14 | CN1C(=O)C(NC(=O)c2nnc(Cc3ccccc3)[nH]2)CN2CCc3cccc1c32 (racemic) [T-14, (±)-5-benzyl-N-(1-methyl-2-oxo-1,2,3,4,6,7-hexahydro-[1,4]diazepino [3,2,1-hi]indol-3-yl)-4H-1,2,4-triazole-3-carboxamide] | 0.01 to 0.1
15 | CN1C(=O)C(NC(=O)c2nnc(Cc3ccccc3)[nH]2)Cn2cc(-c3cnn(C)c3)c3cccc1c32 (racemic) [T-15, (±)-5-benzyl-N-(1-methyl-7-(1-methyl-1H-pyrazol-4-yl)-2-oxy-1,2,3,4-tetrahydro-[1,4]diazepino [3,2,1-hi]indol-3-yl)-4H-1,2,4-triazole-3-carboxamide] | < 0.01
16 | CN1C(=O)C(NC(=O)c2nnc(Cc3ccccc3)[nH]2)Cn2cc(-c3cccnc3)c3cccc1c32 (racemic) [T-17, (±)-5-benzyl-N-(1-methyl-2-oxo-7-(pyridin-3-yl)-1,2,3,4-tetrahydro-[1,4]diazepino [3,2,1-hi]indol-3-yl)-4H-1,2,4-triazole-3-carboxamide] | 0.01 to 0.1
17 | CN1C(=O)C(NC(=O)c2nnc(Cc3ccccc3)[nH]2)Cn2cc(-c3cc(C(F)(F)F)nn3C)c3cccc1c32 (racemic) [T-18, (±)-5-benzyl-N-(1-methyl-7-(1-methyl-3-(trifluoromethyl)-1H-pyrazol-5-yl)-2-oxo-1,2,3,4-tetrahydro-[1,4]diazepino [3,2,1-hi]indol-3-yl)-4H-1,2,4-triazole-3-carboxamide] | < 0.01
18 | CN1C(=O)C(NC(=O)c2nnc(Cc3ccccc3)[nH]2)Cc2c[nH]c3cccc1c23 (racemic) [T-19, (±)-5-benzyl-N-(1-methyl-2-oxo-2,3,4,6-tetrahydro-1H-azacyclo [4,3,2-cd]indol-3-yl)-4H-1,2,4-triazole-3-carboxamide] | < 0.01
19 | CN1C(=O)C(NC(=O)c2nnc(Cc3ccccc3)[nH]2)Cc2cn(C)c3cccc1c23 (racemic) [T-20, (±)-5-benzyl-N-(1,6-dimethyl-2-oxo-2,3,4,6-tetrahydro-1H-azacyclo [4,3,2-cd]indol-3-yl)-4H-1,2,4-triazole-3-carboxamide] | 0.01 to 0.1
20 | CN1C(=O)C(NC(=O)c2nnc(Cc3ccccc3)[nH]2)Cc2cn(S(=O)(=O)c3ccccc3)c3cccc1c23 (racemic) [T-21, (±)-5-benzyl-N-(1-methyl-2-oxo-6-(benzenesulfonyl)-2,3,4,6-tetrahydro-1H-aza [4,3,2-cd]indol-3-yl)-4H-1,2,4-triazole-3-carboxamide] | 0.1 to 1
21 | CN1C(=O)C(NC(=O)c2nnc(Cc3ccccc3)[nH]2)Cc2cn(CC3CC3)c3cccc1c23 (racemic) [T-22, (±)-5-benzyl-N-(6-(cyclopropylmethyl)-1-methyl-2-oxo-2,3,4,6-tetrahydro-1H-azacyclo [4,3,2-cd]indol-3-yl)-4H-1,2,4-triazole-3-carboxamide] | 0.01 to 0.1
